This is an account of results in paper doi:10.1101/2023.12.04.569845, “Identification of 4-(6-((2-methoxyphenyl)amino)pyrazin-2-yl)benzoic acids as CSNK2A inhibitors with antiviral activity and improved selectivity over PIM3” (bioRxiv, 2023).

Like-named read-outs stand apart in the source and are kept apart here.

Holding throughout (assay): biochemical
Common to all, as to design: Thermal shift (DSF, SYPRO Orange) Tm shift of recombinant kinase domains at 10 uM compound

One assay addresses T1, STLK3 (Homo sapiens, UniProt Q9UEW8).
T1 construct: gene STK39

The target in another assay is CAMK1G (Homo sapiens, UniProt Q96NX5).
A further assay concerns the target T2, CASK (Homo sapiens, UniProt O14936).
T2 sequence (O14936 1-926): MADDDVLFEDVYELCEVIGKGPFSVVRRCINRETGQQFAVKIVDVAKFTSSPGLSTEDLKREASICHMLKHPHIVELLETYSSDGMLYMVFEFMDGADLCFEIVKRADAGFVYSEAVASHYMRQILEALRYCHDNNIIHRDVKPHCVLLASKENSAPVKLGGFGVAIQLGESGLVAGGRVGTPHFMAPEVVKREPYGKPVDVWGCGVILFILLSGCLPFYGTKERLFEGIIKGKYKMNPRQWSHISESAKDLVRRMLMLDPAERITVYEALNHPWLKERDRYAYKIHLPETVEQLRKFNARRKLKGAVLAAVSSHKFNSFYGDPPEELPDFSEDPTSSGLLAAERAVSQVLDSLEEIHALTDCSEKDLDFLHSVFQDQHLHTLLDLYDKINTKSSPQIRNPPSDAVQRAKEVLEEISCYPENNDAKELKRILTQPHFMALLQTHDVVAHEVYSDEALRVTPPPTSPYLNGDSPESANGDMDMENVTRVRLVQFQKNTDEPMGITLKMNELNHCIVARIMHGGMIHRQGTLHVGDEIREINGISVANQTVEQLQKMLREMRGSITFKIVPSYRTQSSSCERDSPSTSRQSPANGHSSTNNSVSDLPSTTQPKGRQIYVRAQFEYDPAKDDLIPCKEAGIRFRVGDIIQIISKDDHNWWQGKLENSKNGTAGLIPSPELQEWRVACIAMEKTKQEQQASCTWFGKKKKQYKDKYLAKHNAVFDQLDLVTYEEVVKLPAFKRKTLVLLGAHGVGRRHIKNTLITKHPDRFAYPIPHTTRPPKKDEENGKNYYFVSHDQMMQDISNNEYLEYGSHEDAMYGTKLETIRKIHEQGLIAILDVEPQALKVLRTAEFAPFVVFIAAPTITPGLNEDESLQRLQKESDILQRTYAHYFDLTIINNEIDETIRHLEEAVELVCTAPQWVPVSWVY

The target of a further assay is T3, CK1d (Homo sapiens, UniProt P48730).
T3 construct: gene CSNK1D

A further assay has as its target T4, BRPF1 (Homo sapiens, UniProt P55201).
T4 sequence (P55201 1-1214): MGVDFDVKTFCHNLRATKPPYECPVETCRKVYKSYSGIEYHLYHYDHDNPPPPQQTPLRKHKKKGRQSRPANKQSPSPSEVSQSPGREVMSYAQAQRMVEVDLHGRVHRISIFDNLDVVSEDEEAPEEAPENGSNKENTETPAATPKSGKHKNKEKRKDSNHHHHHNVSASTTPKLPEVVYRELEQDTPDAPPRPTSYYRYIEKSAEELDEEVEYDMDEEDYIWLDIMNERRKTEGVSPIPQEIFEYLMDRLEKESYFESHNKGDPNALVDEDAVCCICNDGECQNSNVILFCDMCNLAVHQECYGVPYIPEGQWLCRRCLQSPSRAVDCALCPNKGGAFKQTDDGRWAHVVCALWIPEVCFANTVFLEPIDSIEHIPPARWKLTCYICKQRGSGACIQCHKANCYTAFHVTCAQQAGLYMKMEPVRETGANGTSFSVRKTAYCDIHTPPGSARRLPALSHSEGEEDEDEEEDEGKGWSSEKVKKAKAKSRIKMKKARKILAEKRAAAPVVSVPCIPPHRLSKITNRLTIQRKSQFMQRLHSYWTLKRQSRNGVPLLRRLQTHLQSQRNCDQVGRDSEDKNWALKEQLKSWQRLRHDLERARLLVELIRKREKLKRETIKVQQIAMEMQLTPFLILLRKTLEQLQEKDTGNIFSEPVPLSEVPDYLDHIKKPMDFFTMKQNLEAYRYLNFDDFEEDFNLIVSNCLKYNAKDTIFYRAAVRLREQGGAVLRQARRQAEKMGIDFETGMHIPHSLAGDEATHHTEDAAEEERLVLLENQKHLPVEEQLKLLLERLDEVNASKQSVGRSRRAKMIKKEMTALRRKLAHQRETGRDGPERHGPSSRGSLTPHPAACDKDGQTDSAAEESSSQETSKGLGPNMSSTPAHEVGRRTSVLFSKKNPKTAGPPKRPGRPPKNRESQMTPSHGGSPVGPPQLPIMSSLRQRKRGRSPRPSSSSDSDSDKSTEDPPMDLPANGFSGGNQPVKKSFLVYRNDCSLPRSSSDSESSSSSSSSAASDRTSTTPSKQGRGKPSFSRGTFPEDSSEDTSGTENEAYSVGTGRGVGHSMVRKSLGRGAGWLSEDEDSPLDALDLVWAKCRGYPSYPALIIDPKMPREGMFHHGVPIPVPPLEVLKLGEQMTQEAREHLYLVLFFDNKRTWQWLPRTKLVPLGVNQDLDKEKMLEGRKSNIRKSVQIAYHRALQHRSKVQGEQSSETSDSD

Sequence of CAMK1G (Q96NX5 whole entry): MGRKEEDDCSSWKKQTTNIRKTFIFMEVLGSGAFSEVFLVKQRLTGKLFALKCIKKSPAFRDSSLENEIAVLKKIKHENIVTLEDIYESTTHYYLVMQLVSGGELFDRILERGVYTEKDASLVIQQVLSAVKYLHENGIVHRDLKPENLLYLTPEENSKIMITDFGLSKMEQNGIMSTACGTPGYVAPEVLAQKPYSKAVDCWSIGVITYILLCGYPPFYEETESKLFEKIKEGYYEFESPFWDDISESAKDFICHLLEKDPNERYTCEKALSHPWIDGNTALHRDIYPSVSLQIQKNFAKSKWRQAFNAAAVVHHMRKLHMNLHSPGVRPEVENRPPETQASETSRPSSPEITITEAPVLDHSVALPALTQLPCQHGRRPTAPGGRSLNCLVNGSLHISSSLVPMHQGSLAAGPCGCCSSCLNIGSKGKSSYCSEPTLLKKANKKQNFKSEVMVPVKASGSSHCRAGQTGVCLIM
T3 sequence (P48730 whole entry): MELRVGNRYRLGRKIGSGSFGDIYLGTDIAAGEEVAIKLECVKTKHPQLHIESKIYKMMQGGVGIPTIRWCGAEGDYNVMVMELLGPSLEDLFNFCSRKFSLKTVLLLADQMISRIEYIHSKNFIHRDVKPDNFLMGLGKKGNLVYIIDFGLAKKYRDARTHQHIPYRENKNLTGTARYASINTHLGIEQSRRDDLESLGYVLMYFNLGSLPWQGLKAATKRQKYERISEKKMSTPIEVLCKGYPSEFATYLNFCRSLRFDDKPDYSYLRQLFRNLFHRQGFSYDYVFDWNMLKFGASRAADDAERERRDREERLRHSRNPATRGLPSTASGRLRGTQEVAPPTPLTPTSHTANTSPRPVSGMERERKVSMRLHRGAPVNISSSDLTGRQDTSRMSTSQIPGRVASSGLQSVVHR

Turning to `CC(C)Oc1ccc2ccn(-c3cncc(-c4ccc(C(=O)O)cc4)n3)c2c1` [6c], the ΔTm at 10 µM at STLK3 (read-out: 6c) is 0 °C; at CAMK1G (read-out: 6c), 0 °C; on CASK (read-out: 6c), 1 °C; on CK1d (read-out: 6c), 3 °C; on BRPF1 (read-out: 6c), -1 °C.

`COc1ccc(OC(C)C)cc1Nc1cncc(-c2ccc(C(=O)O)cc2)n1` [7c]: the ΔTm at 10 µM at STLK3 (read-out: 7c) was 0 °C; at CAMK1G (read-out: 7c), -1 °C; at CASK (read-out: 7c), 0 °C; at CK1d (read-out: 7c), 2 °C; on BRPF1 (read-out: 7c) it was 0 °C.

As for `CC(C)Nc1ccc2cnn(-c3cncc(-c4ccc(C(=O)O)cc4)n3)c2c1` [compound 2, 2], the ΔTm at 10 µM at STLK3 (read-out: 2) came to 1 °C; on CAMK1G (read-out: 2), 2 °C; on CASK (read-out: 2) it was 0 °C; at CK1d (read-out: 2) it was 3 °C; on BRPF1 (read-out: 2), 2 °C.
